Experimental data from ChEMBL document CHEMBL5665443, “Enzyme Inhibitor Single Concentration assay results for EUbOPEN Chemogenomics Library” (2024).

What was measured:
Conditions in all cases: Hit No
[1] = biological target: Methyl-CpG-binding domain protein 4 (Homo sapiens) (UniProt O95243);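 note: MBD4 activity read as fluorescence at 594 nm from cleavage and release of a quenched duplex DNA oligonucleotide, with APE1 coupled to incise the strand and raise turnover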
Description: Inhibition of MBD4 by quantifying inhibition of MBD4-mediated cleavage and dissociation of quenched duplex DNA oligonucleotides, measured as fluorescence at 594 nm. To generate a functional strand incision and increase turn-over this assay is coupled to APE1.

[2] = biological target: N-glycosylase/DNA lyase (Homo sapiens) (UniProt O15527);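 note: OGG1 cleavage of a quenched duplex DNA oligonucleotide, coupled to APE1 for strand incision, read as fluorescence at 594 nm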
Description: Inhibition of OGG1 by quantifying inhibition of OGG1-mediated cleavage and dissociation of quenched duplex DNA oligonucleotides, measured as fluorescence at 594 nm. To generate a functional strand incision and increase turn-over this assay is coupled to APE1.

[3] = biological target: T1, Endonuclease III-like protein 1 (Homo sapiens) (UniProt P78549);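 note: enzyme assay tracking NTHL1 cutting and release of a quenched double-stranded DNA oligo substrate, read as fluorescence at 594 nm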
T1 sequence (whole entry): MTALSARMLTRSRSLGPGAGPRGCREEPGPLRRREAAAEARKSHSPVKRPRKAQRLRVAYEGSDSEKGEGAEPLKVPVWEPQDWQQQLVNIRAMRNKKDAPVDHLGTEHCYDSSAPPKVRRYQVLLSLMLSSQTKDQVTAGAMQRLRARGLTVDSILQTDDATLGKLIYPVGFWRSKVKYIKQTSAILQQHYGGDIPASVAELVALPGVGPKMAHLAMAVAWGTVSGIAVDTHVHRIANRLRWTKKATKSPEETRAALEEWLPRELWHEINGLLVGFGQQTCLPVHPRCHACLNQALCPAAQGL
Description: Inhibition of NTHL1 by quantifying inhibition of NTHL1-mediated cleavage and dissociation of quenched duplex DNA oligonucleotides, measured as fluorescence at 594 nm.

[4] = biological target: G/T mismatch-specific thymine DNA glycosylase (Homo sapiens) (UniProt Q13569);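 note: human TDG cleavage of quenched duplex DNA oligonucleotides coupled to APE1, strand release read as fluorescence at 594 nm, inhibition of TDG activity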
Description: Inhibition of TDG by quantifying inhibition of TDG-mediated cleavage and dissociation of quenched duplex DNA oligonucleotides, measured as fluorescence at 594 nm. To generate a functional strand incision and increase turn-over this assay is coupled to APE1.

[5] = biological target: T2, Single-strand selective monofunctional uracil DNA glycosylase (Homo sapiens) (UniProt Q53HV7);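 note: enzymatic SMUG1 assay coupled with APE1, reading fluorescence at 594 nm released when a quenched double-stranded DNA oligonucleotide substrate is cleaved and separated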
T2 sequence (whole entry): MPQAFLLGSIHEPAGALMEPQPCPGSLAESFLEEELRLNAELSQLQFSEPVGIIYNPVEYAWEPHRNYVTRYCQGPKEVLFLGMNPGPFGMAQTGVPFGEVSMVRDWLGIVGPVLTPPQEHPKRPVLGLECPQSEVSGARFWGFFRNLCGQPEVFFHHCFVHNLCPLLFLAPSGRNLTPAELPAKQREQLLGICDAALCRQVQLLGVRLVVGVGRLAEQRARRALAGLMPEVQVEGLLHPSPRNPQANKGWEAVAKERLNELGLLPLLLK
Description: Inhibition of SMUG1 by quantifying inhibition of SMUG1-mediated cleavage and dissociation of quenched duplex DNA oligonucleotides, measured as fluorescence at 594 nm. To generate a functional strand incision and increase turn-over this assay is coupled to APE1.

[6] = biological target: Endonuclease 8-like 1 (Homo sapiens) (UniProt Q96FI4);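 note: fluorescence at 594 nm from quenched duplex DNA oligonucleotides released by NEIL1 cleavage and strand separation, reported as reduction of this enzyme activity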
Description: Inhibition of NEIL1 by quantifying inhibition of NEIL1-mediated cleavage and dissociation of quenched duplex DNA oligonucleotides, measured as fluorescence at 594 nm.

[7] = biological target: Uracil-DNA glycosylase (Homo sapiens) (UniProt P13051);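 note: UNG excision on a quenched double-stranded DNA oligo probe, with APE1 added for strand incision and turnover, read as fluorescence at 594 nm as strands separate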
Description: Inhibition of UNG by quantifying inhibition of UNG-mediated cleavage and dissociation of quenched duplex DNA oligonucleotides, measured as fluorescence at 594 nm. To generate a functional strand incision and increase turn-over this assay is coupled to APE1.

[8] = biological target: T3, Endonuclease 8-like 2 (Homo sapiens) (UniProt Q969S2);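 note: fluorescence at 594 nm reports NEIL2 cutting and release of a quenched double-stranded DNA oligo substrate, reduced signal read as inhibition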
T3 sequence (whole entry): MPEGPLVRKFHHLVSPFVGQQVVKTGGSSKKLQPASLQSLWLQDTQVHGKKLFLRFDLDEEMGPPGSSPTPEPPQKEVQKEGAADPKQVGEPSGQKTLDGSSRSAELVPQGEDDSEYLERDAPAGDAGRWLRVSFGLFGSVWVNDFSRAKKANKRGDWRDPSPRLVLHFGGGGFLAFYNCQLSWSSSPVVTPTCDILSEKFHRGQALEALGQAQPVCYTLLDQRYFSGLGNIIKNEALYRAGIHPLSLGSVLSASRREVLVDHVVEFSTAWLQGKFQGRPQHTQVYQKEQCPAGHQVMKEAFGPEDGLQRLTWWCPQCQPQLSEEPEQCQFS
Description: Inhibition of NEIL2 by quantifying inhibition of NEIL2-mediated cleavage and dissociation of quenched duplex DNA oligonucleotides, measured as fluorescence at 594 nm.

[9] = biological target: T4, Adenine DNA glycosylase (Homo sapiens) (UniProt Q9UIF7);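 note: human MUTYH activity read as 594 nm fluorescence from cleavage and release of a quenched DNA duplex, coupled with APE1 for strand incision, lower signal meaning inhibition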
T4 sequence (whole entry): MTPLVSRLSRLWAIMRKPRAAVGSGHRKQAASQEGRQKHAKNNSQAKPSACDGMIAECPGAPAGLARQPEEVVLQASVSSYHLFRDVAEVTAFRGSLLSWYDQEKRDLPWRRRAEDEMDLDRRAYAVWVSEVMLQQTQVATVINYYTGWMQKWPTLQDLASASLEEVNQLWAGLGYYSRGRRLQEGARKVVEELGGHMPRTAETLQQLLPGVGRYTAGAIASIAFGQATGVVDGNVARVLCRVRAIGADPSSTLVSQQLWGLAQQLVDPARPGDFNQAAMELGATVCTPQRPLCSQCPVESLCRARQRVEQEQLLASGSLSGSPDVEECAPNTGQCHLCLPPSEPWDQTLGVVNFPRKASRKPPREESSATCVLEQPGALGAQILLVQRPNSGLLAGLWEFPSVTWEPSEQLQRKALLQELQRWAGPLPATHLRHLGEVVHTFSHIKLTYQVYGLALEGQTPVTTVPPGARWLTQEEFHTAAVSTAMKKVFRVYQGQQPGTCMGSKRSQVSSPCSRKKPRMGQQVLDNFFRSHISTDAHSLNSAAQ
Description: Inhibition of MUTYH by quantifying inhibition of MUTYH-mediated cleavage and dissociation of quenched duplex DNA oligonucleotides, measured as fluorescence at 594 nm. To generate a functional strand incision and increase turn-over this assay is coupled to APE1.

Sequence of Methyl-CpG-binding domain protein 4 (Homo sapiens) (O95243 whole entry, the tested form may be a part): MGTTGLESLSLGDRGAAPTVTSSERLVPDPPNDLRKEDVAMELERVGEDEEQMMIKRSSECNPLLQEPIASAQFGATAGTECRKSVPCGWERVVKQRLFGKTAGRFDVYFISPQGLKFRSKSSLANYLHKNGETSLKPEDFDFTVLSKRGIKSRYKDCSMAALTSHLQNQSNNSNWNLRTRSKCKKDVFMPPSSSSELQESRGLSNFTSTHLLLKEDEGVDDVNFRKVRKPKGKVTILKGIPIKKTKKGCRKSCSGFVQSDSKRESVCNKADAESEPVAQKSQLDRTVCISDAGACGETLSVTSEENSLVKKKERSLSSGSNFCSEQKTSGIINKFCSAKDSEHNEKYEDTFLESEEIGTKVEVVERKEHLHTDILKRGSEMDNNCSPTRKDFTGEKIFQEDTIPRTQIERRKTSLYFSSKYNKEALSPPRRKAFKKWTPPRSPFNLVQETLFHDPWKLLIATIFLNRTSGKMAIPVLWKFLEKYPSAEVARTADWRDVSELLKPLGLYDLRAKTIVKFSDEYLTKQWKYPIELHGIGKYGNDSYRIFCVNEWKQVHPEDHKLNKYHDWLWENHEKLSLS
Sequence of G/T mismatch-specific thymine DNA glycosylase (Homo sapiens) (Q13569 whole entry): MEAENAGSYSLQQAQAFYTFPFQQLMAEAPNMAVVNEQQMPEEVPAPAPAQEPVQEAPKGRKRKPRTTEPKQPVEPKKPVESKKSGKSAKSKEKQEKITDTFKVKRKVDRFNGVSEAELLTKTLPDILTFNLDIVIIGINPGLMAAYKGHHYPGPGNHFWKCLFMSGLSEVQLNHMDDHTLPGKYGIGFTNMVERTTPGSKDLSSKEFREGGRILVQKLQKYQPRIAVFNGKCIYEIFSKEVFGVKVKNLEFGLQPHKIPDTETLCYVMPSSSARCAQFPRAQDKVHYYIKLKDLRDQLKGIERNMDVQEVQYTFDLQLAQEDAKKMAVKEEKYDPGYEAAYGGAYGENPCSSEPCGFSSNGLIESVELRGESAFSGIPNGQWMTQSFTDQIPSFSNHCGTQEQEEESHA
Sequence of Uracil-DNA glycosylase (Homo sapiens) (P13051 whole entry): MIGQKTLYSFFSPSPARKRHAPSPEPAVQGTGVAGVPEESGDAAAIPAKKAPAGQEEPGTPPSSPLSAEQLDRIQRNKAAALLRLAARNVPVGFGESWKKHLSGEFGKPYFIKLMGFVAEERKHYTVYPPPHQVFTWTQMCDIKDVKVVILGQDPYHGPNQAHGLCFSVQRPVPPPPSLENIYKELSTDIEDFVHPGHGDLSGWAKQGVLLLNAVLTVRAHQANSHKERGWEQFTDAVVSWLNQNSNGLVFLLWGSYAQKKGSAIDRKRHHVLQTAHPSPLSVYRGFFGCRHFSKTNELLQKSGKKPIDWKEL
Sequence of Endonuclease 8-like 1 (Homo sapiens) (Q96FI4 whole entry): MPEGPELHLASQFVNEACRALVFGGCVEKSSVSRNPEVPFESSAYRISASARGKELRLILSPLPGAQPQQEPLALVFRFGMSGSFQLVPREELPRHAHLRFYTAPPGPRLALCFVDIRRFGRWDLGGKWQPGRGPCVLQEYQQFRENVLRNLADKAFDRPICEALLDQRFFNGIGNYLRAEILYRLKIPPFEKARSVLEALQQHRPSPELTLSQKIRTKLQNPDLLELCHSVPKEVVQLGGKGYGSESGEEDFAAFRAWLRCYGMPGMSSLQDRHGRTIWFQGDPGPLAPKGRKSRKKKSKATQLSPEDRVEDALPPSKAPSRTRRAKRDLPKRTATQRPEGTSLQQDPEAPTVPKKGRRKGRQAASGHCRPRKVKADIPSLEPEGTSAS
Sequence of N-glycosylase/DNA lyase (Homo sapiens) (O15527 whole entry): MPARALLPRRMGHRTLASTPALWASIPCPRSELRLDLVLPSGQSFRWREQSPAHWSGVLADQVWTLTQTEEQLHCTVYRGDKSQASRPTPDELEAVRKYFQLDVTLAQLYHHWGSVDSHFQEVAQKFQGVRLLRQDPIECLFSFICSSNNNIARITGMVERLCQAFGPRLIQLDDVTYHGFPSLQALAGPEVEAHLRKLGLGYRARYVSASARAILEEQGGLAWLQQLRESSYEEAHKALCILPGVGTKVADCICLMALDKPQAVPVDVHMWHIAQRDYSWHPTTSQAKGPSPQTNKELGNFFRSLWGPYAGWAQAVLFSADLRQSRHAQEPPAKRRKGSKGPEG

Structure (SMILES) | inhibition ([1]; Compound Concentration 10.0 uM) [%] | inhibition ([2]; Compound Concentration 10.0 uM) [%] | inhibition ([3]; Compound Concentration 10.0 uM) [%] | inhibition ([4]; Compound Concentration 10.0 uM) [%] | inhibition ([5]; Compound Concentration 10.0 uM) [%] | inhibition ([6]; Compound Concentration 10.0 uM) [%] | inhibition ([7]; Compound Concentration 10.0 uM) [%] | inhibition ([8]; Compound Concentration 10.0 uM) [%] | inhibition ([9]; Compound Concentration 10.0 uM) [%] | inhibition ([1]; Compound Concentration 1.0 uM) [%] | inhibition ([3]; Compound Concentration 1.0 uM) [%] | inhibition ([4]; Compound Concentration 1.0 uM) [%] | inhibition ([5]; Compound Concentration 1.0 uM) [%] | inhibition ([6]; Compound Concentration 1.0 uM) [%] | inhibition ([7]; Compound Concentration 1.0 uM) [%] | inhibition ([2]; Compound Concentration 1.0 uM) [%] | inhibition ([8]; Compound Concentration 1.0 uM) [%] | inhibition ([9]; Compound Concentration 1.0 uM) [%]
CC(=O)Nc1ncc(CN2CCC[C@H](Cc3cc(C)nc(C)c3)C2)s1 | 96.5 | 2.54 | -3.26 | 48.4 | 18.4 | 1.53 | 6.88 | -5.08 | 9.89 | – | – | – | – | – | – | – | – | –
C[C@H](NC(=O)c1c(C(F)F)nn(C)c1Oc1cccc(C(F)(F)F)c1)c1ccc(C(=O)O)cc1 | -2.06 | -5.88 | 16.6 | 11.8 | 2.15 | -3.02 | -7.93 | 11.8 | 15.2 | – | – | – | – | – | – | – | – | –
CN1CCN(c2ccnc(NCCc3ccccc3)n2)CC1 | 69 | 9.82 | -9.83 | 50.4 | 8.97 | 2.13 | 6.53 | 14.1 | 16.7 | – | – | – | – | – | – | – | – | –
CC(C)C[C@H](NC(=O)c1cc2ccccc2s1)C(=O)N1CCN(C(=O)[C@H](CO)NS(=O)(=O)c2ccc(Cl)cc2Cl)CC1 | -8.27 | -7.14 | 13.8 | -2.2 | 17.8 | 7.86 | -1.45 | -3.66 | 4.25 | – | – | – | – | – | – | – | – | –
O=C(N[C@@H]1C2CCN(CC2)[C@H]1Cc1cccnc1)c1cc2ccccc2o1 | -7.25 | -7.23 | 27.8 | -0.849 | -7.47 | 5.2 | -1.31 | 1.94 | -1.82 | – | – | – | – | – | – | – | – | –
COCCc1ccc(-c2c(C)nc3c(N4CCOCC4)ccnn23)cn1 | 79.3 | 9.87 | -3.26 | 47.5 | 17.6 | -9.68 | 6.75 | 0.531 | 3.45 | – | – | – | – | – | – | – | – | –
COCCCS(=O)(=O)c1cc(C)c(-c2ccc(F)c3c2CC[C@H]3Oc2ccc3c(c2)OC[C@H]3CC(=O)O)c(C)c1 | 67.8 | 31 | -5.89 | 59.1 | 6.73 | -3.62 | -1.09 | 6.65 | -1.52 | – | – | – | – | – | – | – | – | –
CC1(C)C(=O)C(C)(C)c2cc(C(=O)Nc3ccc(C(=O)O)cc3)ccc21 | 49.5 | 9.87 | -7.2 | 47.5 | 5.8 | -2.26 | -1.52 | -2.53 | -4.47 | – | – | – | – | – | – | – | – | –
CCc1ccc(N(CC(C)C)S(=O)(=O)c2ccc(OCC3CCOCC3)c(CO)c2)cc1 | 69.4 | 9.77 | -1.95 | 98.5 | 18.3 | -7.41 | 5.13 | -1.25 | 7 | – | – | – | – | – | – | – | – | –
C[C@@H]1CCc2ncc(F)cc2[C@H]2CCCN2c2ccn3ncc(c3n2)C(=O)N1 | 0.277 | 2.29 | -1.31 | 40.3 | 26.7 | 2.25 | 4.92 | -1.65 | 17.4 | – | – | – | – | – | – | – | – | –
CCOc1cc(N2CCC(O)CC2)ccc1Nc1ncc2c(n1)N(C)c1ccccc1C(=O)N2C | 17.2 | -8.63 | 1.48 | 59.4 | 19.5 | -3.56 | 12.3 | 2.66 | 18.6 | – | – | – | – | – | – | – | – | –
COc1ccccc1Nc1nc(-c2nn(Cc3c(F)cc(OCCCO)cc3F)c3ccccc23)ncc1OC | 57 | 4.46 | – | 97.1 | 13 | -6.35 | 2.87 | 3.85 | -2.18 | 54.1 | -4.79 | 39 | 10.9 | -4.09 | 0.477 | – | – | –
O=C(NCCCN1CCOC1=O)c1cnc(NCc2cc(Br)ccc2Br)nc1NC1CCCC1 | -6.01 | 2.35 | -4.1 | 48.3 | 15.1 | 5.29 | 4.06 | 8.58 | 8.44 | – | – | – | – | – | – | – | – | –
CC(C)(O)[C@H](F)CN1Cc2cc(NC(=O)c3cnn4cccnc34)c(N3CCOCC3)cc2C1=O | 25.9 | 0.815 | 0.755 | 45.3 | 15.8 | -5.19 | 2.48 | 3.79 | -1.18 | – | – | – | – | – | – | – | – | –
CC(C)CC(=O)N1CCc2nc(-c3ccc(Br)cc3)nc(N(C)Cc3ccccc3)c2C1 | – | – | – | – | – | – | – | – | – | 55.1 | -3.26 | 35.8 | 4.46 | -9.83 | 0.688 | 5 | -1.25 | -1.09
Cc1nc(C2CCN(C(=O)c3ccc(OC(F)(F)F)cc3N)CC2)c2ncc(N3CCN(C)CC3)cc2n1 | 30.1 | 7.7 | -0.379 | 61.5 | 17.5 | -5.75 | 7.52 | -4.68 | 9.15 | – | – | – | – | – | – | – | – | –
